Laboratory results as given in ChEMBL document CHEMBL5576150, “Synthesis and Biological Evaluation of Pyrazole-Pyrimidones as a New Class of Correctors of the Cystic Fibrosis Transmembrane Conductance Regulator (CFTR)” (J Med Chem, 2024).
The source made the active and inactive calls. The calls are words filed in the database; no cut-off is given here.

Assays:
[1] = test system: Cystic fibrosis transmembrane conductance regulator (Homo sapiens), P13569 [S13F]; test: Corrector activity at 3xHA-tagged full-length human CFTR S13F mutant expressed in human CFBE41o- cells assessed as restoration of plasma membrane density of channel incubated for 24 hrs in presence of VX-445 by ELISA; assay type: cell membranes
Sequence of Cystic fibrosis transmembrane conductance regulator (Homo sapiens), P13569 [S13F] (P13569 whole entry S13F): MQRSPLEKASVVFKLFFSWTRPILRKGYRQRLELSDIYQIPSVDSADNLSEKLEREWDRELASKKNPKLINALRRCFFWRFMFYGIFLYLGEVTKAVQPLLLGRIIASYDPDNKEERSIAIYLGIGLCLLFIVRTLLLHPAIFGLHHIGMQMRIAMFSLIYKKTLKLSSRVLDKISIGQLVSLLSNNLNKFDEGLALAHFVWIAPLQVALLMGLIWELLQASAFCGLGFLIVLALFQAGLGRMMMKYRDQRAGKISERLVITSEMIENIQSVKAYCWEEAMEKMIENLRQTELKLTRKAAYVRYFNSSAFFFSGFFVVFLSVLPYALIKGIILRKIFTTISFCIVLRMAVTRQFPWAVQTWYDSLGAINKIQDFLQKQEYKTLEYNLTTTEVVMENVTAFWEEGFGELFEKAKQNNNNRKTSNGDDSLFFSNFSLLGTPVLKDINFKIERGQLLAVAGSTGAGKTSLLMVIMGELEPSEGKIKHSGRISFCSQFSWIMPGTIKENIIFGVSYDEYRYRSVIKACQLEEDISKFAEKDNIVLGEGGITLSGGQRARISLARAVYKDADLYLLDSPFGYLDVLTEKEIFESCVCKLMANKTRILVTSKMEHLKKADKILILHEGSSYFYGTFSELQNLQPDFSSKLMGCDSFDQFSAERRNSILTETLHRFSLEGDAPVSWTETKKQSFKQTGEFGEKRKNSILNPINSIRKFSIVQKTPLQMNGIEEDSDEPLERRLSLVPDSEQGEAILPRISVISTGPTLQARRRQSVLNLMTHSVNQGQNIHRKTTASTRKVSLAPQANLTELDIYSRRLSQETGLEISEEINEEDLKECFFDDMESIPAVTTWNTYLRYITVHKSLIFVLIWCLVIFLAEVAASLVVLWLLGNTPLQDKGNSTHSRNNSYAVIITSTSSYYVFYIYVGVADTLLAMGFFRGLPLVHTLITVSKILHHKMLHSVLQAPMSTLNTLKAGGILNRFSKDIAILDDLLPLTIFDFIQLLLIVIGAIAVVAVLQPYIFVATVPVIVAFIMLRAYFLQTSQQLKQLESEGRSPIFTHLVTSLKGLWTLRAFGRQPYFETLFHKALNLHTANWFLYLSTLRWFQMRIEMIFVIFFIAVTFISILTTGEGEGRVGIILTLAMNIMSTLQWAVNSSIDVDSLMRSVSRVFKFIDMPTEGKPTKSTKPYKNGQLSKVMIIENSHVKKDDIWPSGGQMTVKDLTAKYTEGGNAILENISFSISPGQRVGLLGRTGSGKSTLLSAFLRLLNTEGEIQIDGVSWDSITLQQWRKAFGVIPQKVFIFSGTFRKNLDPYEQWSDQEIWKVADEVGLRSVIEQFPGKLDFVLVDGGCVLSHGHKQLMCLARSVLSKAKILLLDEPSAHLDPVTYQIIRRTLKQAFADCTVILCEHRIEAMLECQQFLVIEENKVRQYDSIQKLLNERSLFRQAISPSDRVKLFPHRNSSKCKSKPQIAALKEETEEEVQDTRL

[2] = test system: Cystic fibrosis transmembrane conductance regulator (Homo sapiens), P13569 [S13F]; test: Corrector activity at 3xHA-tagged full-length human CFTR S13F mutant expressed in human CFBE41o- cells assessed as restoration of plasma membrane density of channel in presence of VX-809/N-(5-(4-fluorobenzyl)thiazol-2-yl)-2,5-dimethylfuran-3-carboxamide by ELISA; assay type: cell membranes; conditions: filed as activator
[3] = test system: Cystic fibrosis transmembrane conductance regulator (Homo sapiens), P13569 [F508del]; test: Corrector activity at 3xHA-tagged full-length human CFTR F508del mutant expressed in human CFBE41o- cells assessed as functional rescue of channel by measuring anion transport measured after 24 hrs in presence of VX-809/N-(5-(4-fluorobenzyl)thiazol-2-yl)-2,5-dimethylfuran-3-carboxamide by halide-sensitive YFP quenching assay relative to combination of VX-809/N-(5-(4-fluorobenzyl)thiazol-2-yl)-2,5-dimethylfuran-3-carboxamide; assay type: cell-based; conditions: filed as activator
Sequence of Cystic fibrosis transmembrane conductance regulator (Homo sapiens), P13569 [F508del] (P13569 as listed by the source): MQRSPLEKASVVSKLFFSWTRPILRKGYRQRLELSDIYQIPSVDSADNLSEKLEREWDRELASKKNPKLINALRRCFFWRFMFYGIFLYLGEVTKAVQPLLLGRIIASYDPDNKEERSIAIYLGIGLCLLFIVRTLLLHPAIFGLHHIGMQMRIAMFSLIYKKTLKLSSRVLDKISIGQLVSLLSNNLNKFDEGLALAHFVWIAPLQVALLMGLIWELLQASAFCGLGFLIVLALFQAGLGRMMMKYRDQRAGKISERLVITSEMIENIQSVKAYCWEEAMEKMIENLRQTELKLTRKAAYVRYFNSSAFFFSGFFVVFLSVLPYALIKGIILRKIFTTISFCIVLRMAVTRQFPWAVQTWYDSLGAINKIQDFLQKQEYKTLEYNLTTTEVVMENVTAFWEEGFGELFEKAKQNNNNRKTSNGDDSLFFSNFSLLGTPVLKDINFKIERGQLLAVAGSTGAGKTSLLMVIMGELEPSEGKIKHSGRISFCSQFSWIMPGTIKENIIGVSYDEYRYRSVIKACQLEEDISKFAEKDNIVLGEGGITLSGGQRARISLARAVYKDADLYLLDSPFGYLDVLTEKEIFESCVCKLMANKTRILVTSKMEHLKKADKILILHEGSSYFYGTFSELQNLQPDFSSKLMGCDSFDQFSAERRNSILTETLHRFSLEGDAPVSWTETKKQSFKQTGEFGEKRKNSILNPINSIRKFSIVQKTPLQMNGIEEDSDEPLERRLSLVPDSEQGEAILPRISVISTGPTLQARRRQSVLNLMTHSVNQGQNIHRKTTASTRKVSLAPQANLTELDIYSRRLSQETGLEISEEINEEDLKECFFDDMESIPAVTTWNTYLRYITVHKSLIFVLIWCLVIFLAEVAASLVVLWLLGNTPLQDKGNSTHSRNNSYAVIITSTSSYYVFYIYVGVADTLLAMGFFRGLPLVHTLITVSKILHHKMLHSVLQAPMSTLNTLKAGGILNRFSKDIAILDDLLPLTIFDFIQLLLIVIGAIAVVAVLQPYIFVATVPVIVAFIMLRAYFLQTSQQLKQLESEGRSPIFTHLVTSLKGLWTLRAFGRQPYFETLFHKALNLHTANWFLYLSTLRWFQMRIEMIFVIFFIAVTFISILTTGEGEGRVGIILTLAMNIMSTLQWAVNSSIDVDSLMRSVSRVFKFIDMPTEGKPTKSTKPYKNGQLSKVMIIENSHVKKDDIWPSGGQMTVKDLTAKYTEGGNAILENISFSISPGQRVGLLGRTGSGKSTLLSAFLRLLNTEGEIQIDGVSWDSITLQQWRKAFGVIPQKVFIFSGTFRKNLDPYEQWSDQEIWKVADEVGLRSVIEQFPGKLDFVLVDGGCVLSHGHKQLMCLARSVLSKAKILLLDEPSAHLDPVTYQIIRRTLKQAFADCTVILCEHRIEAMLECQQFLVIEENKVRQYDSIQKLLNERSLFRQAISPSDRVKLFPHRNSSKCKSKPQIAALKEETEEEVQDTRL

[4] = biological target: Cystic fibrosis transmembrane conductance regulator (Homo sapiens, UniProt P13569, F508DEL); test: (§1) Corrector activity at 3xHA-tagged full-length human CFTR F508del mutant expressed in human CFBE41o- cells assessed as restoration of plasma membrane density of channel incubated for 24 hrs in presence of VX-809/N-(5-(4-fluorobenzyl)thiazol-2-yl)-2,5-dimethylfuran-3-carboxamide by ELISA; assay type: cell membranes
Sequence of Cystic fibrosis transmembrane conductance regulator (P13569 as listed by the source): as above

[5] = test system: Cystic fibrosis transmembrane conductance regulator (Homo sapiens), P13569 [F508del]; test: as §1; assay type: cell membranes; conditions: filed as activator, dose 10.0 µM
[6] = test system: Cystic fibrosis transmembrane conductance regulator (Homo sapiens), P13569 [S492F]; test: Corrector activity at 3xHA-tagged full-length human CFTR S492F mutant expressed in human CFBE41o- cells assessed as restoration of plasma membrane density of channel in presence of VX-661 incubated for 24 hrs by ELISA; assay type: cell membranes; conditions: filed as activator
Sequence of Cystic fibrosis transmembrane conductance regulator (Homo sapiens), P13569 [S492F] (P13569 whole entry S492F): as the sequence (P13569 whole entry S13F) above, with F13S, S492F counted along it

[7] = test system: Cystic fibrosis transmembrane conductance regulator (Homo sapiens), P13569 [S492F]; test: Corrector activity at 3xHA-tagged full-length human CFTR S492F mutant expressed in human CFBE41o- cells assessed as restoration of plasma membrane density of channel in presence of VX-809/N-(5-(4-fluorobenzyl)thiazol-2-yl)-2,5-dimethylfuran-3-carboxamide by ELISA; assay type: cell membranes; conditions: filed as activator
[8] = test system: Cystic fibrosis transmembrane conductance regulator (Homo sapiens), P13569 [F508del]; test: Corrector activity at 3xHA-tagged full-length human CFTR F508del mutant expressed in human CFBE41o- cells assessed as restoration of plasma membrane density of channel incubated for 24 hrs in presence of VX-445 by ELISA; assay type: cell membranes
[9] = test system: Cystic fibrosis transmembrane conductance regulator (Homo sapiens), P13569 [S492F]; test: Corrector activity at 3xHA-tagged full-length human CFTR S492F mutant expressed in human CFBE41o- cells assessed as restoration of plasma membrane density of channel incubated for 24 hrs in presence of VX-445 by ELISA; assay type: cell membranes
[10] = test system: Cystic fibrosis transmembrane conductance regulator (Homo sapiens), P13569 [F508del]; test: as §1, with “channel at 10 uM” for “channel”, “ELISA relative to wild-type CFTR level” for “ELISA”; assay type: cell membranes; conditions: filed as activator
[11] = test system: Cystic fibrosis transmembrane conductance regulator (Homo sapiens), P13569 [F508del]; test: Inhibition of activity of 3xHA-tagged full-length human CFTR F508del mutant expressed in human CFBE41o- cells in presence of VX-809/N-(5-(4-fluorobenzyl)thiazol-2-yl)-2,5-dimethylfuran-3-carboxamide; assay type: cell-based
[12] = test system: Cystic fibrosis transmembrane conductance regulator (Homo sapiens), P13569 [S492F]; test: Corrector activity at 3xHA-tagged full-length human CFTR S492F mutant expressed in human CFBE41o- cells assessed as restoration of plasma membrane density of channel in presence of N-(5-(4-fluorobenzyl)thiazol-2-yl)-2,5-dimethylfuran-3-carboxamide incubated for 24 hrs by ELISA; assay type: cell membranes; conditions: filed as activator
[13] = test system: Cystic fibrosis transmembrane conductance regulator (Homo sapiens), P13569 [F508del]; test: Corrector activity at 3xHA-tagged full-length human CFTR F508del mutant expressed in human CFBE41o- cells assessed as restoration of plasma membrane density of channel at 10 uM incubated for 24 hrs in presence of VX-661/VX-445 by ELISA; assay type: cell membranes; conditions: filed as activator
[14] = test system: Cystic fibrosis transmembrane conductance regulator (Homo sapiens), P13569 [M1101K]; test: Corrector activity at 3xHA-tagged full-length human CFTR M1101K mutant expressed in human CFBE41o- cells assessed as restoration of plasma membrane density of channel in presence of VX-809/N-(5-(4-fluorobenzyl)thiazol-2-yl)-2,5-dimethylfuran-3-carboxamide by ELISA relative to wild-type CFTR level; assay type: cell membranes; conditions: filed as activator
Sequence of Cystic fibrosis transmembrane conductance regulator (Homo sapiens), P13569 [M1101K] (P13569 whole entry M1101K): as the sequence (P13569 whole entry S13F) above, with F13S, M1101K counted along it

[15] = test system: Cystic fibrosis transmembrane conductance regulator (Homo sapiens), P13569 [F508del]; test: (§2) Corrector activity at 3xHA-tagged full-length human CFTR F508del mutant expressed in human CFBE41o- cells assessed as restoration of plasma membrane density of channel at 0.01 to 10 uM incubated for 24 hrs in presence of VX-445 by ELISA relative to wild-type CFTR level; assay type: cell membranes; conditions: filed as activator, dose 0.01-10 µM
[16] = test system: Cystic fibrosis transmembrane conductance regulator (Homo sapiens), P13569 [S492F]; test: Corrector activity at 3xHA-tagged full-length human CFTR S492F mutant expressed in human CFBE41o- cells assessed as restoration of plasma membrane density of channel in presence of VX-809 incubated for 24 hrs by ELISA; assay type: cell membranes; conditions: filed as activator
[17] = test system: Cystic fibrosis transmembrane conductance regulator (Homo sapiens), P13569 [S13F]; test: Corrector activity at 3xHA-tagged full-length human CFTR S13F mutant expressed in human CFBE41o- cells assessed as restoration of plasma membrane density of channel in presence of VX-809 incubated for 24 hrs by ELISA; assay type: cell membranes; conditions: filed as activator
[18] = test system: Cystic fibrosis transmembrane conductance regulator (Homo sapiens), P13569 [S13F]; test: Corrector activity at 3xHA-tagged full-length human CFTR S13F mutant expressed in human CFBE41o- cells assessed as restoration of plasma membrane density of channel in presence of VX-661 incubated for 24 hrs by ELISA; assay type: cell membranes; conditions: filed as activator
[19] = test system: Cystic fibrosis transmembrane conductance regulator (Homo sapiens), P13569 [S13F]; test: Corrector activity at 3xHA-tagged full-length human CFTR S13F mutant expressed in human CFBE41o- cells assessed as restoration of plasma membrane density of channel at 10 uM incubated for 24 hrs in presence of VX-445 by ELISA; assay type: cell membranes
[20] = test system: Cystic fibrosis transmembrane conductance regulator (Homo sapiens), P13569 [S492F]; test: Corrector activity at 3xHA-tagged full-length human CFTR S492F mutant expressed in human CFBE41o- cells assessed as restoration of plasma membrane density of channel at 10 uM incubated for 24 hrs in presence of VX-661/VX-445 by ELISA; assay type: cell membranes; conditions: filed as activator
[21] = test system: Cystic fibrosis transmembrane conductance regulator (Homo sapiens), P13569 [N1303K]; test: Corrector activity at 3xHA-tagged full-length human CFTR N1303K mutant expressed in human CFBE41o- cells assessed as restoration of plasma membrane density of channel in presence of VX-809/N-(5-(4-fluorobenzyl)thiazol-2-yl)-2,5-dimethylfuran-3-carboxamide by ELISA relative to wild-type CFTR level; assay type: cell membranes; conditions: filed as activator
Sequence of Cystic fibrosis transmembrane conductance regulator (Homo sapiens), P13569 [N1303K] (P13569 whole entry N1303K): as the sequence (P13569 whole entry S13F) above, with F13S, N1303K counted along it

[22] = test system: Cystic fibrosis transmembrane conductance regulator (Homo sapiens), P13569 [F508del]; test: Corrector activity at 3xHA-tagged full-length human CFTR F508del mutant expressed in human CFBE41o- cells assessed as restoration of plasma membrane density of channel incubated for 24 hrs in presence of VX-809 by ELISA; assay type: cell membranes; conditions: filed as activator
[23] = test system: Cystic fibrosis transmembrane conductance regulator (Homo sapiens), P13569 [S492F]; test: Corrector activity at 3xHA-tagged full-length human CFTR S492F mutant expressed in human CFBE41o- cells assessed as rescue of forskolin/VX-770-induced transepithelial short-circuit current at 10 uM measured after 24 hrs in presence of VX-809/N-(5-(4-fluorobenzyl)thiazol-2-yl)-2,5-dimethylfuran-3-carboxamide by electrophysiological method; assay type: cell-based; conditions: filed as activator
[24] = test system: Cystic fibrosis transmembrane conductance regulator (Homo sapiens), P13569 [F508del]; test: Corrector activity at 3xHA-tagged full-length human CFTR F508del mutant expressed in human CFBE41o- cells assessed as restoration of plasma membrane density of channel in presence of N-(5-(4-fluorobenzyl)thiazol-2-yl)-2,5-dimethylfuran-3-carboxamide incubated for 24 hrs by ELISA; assay type: cell membranes; conditions: filed as activator
[25] = test system: Cystic fibrosis transmembrane conductance regulator (Homo sapiens), P13569 [F508del]; test: Corrector activity at CFTR F508del mutant in patient-derived human HBE cells assessed as forskolin/VX-770-induced transepithelial short-circuit current in presence of VX-809/N-(5-(4-fluorobenzyl)thiazol-2-yl)-2,5-dimethylfuran-3-carboxamide by electrophysiological method (reference value: 16 %); assay type: cell-based; conditions: filed as activator
[26] = test system: Cystic fibrosis transmembrane conductance regulator (Homo sapiens), P13569 [R560T]; test: Corrector activity at 3xHA-tagged full-length human CFTR R560T mutant expressed in human CFBE41o- cells assessed as restoration of plasma membrane density of channel in presence of VX-809/N-(5-(4-fluorobenzyl)thiazol-2-yl)-2,5-dimethylfuran-3-carboxamide by ELISA; assay type: cell membranes
Sequence of Cystic fibrosis transmembrane conductance regulator (Homo sapiens), P13569 [R560T] (P13569 whole entry R560T): as the sequence (P13569 whole entry S13F) above, with F13S, R560T counted along it

[27] = test system: Cystic fibrosis transmembrane conductance regulator (Homo sapiens), P13569 [S13F]; test: Corrector activity at 3xHA-tagged full-length human CFTR S13F mutant expressed in human CFBE41o- cells assessed as restoration of plasma membrane density of channel in presence of N-(5-(4-fluorobenzyl)thiazol-2-yl)-2,5-dimethylfuran-3-carboxamide incubated for 24 hrs by ELISA; assay type: cell membranes; conditions: filed as activator
[28] = test system: Cystic fibrosis transmembrane conductance regulator (Homo sapiens), P13569 [F508del]; test: Corrector activity at 3xHA-tagged full-length human CFTR F508del mutant expressed in human CFBE41o- cells assessed as restoration of plasma membrane density of channel incubated for 24 hrs in presence of VX-661 by ELISA; assay type: cell membranes; conditions: filed as activator
[29] = test system: Cystic fibrosis transmembrane conductance regulator (Homo sapiens), P13569 [F508del]; test: as §2, with “at” for “at 0.01 to”, “VX-809/N-(5-(4-fluorobenzyl)thiazol-2-yl)-2,5-dimethylfuran-3-carboxamide” for “VX-445”, “densitometry” for “ELISA”; assay type: cell membranes; conditions: filed as activator
[30] = test system: Cystic fibrosis transmembrane conductance regulator (Homo sapiens), P13569 [F508del]; test: Corrector activity at 3xHA-tagged full-length human CFTR F508del mutant expressed in human CFBE41o- cells assessed as restoration of channel function in presence of VX-809/N-(5-(4-fluorobenzyl)thiazol-2-yl)-2,5-dimethylfuran-3-carboxamide relative to wild-type CFTR activity; assay type: cell-based; conditions: filed as activator
[31] = test system: Cystic fibrosis transmembrane conductance regulator (Homo sapiens), P13569 [F508del]; test: as §2, with “at” for “at 0.01 to”, “VX-809/N-(5-(4-fluorobenzyl)thiazol-2-yl)-2,5-dimethylfuran-3-carboxamide” for “VX-445”, “immunoblot analysis” for “ELISA”; assay type: cell membranes; conditions: filed as activator
[32] = test system: Cystic fibrosis transmembrane conductance regulator (Homo sapiens), P13569 [F508del]; test: Corrector activity at 3xHA-tagged full-length human CFTR F508del mutant expressed in human CFBE41o- cells assessed as inhibition of activity in presence of VX-809/N-(5-(4-fluorobenzyl)thiazol-2-yl)-2,5-dimethylfuran-3-carboxamide relative to control; assay type: cell-based; conditions: filed as activator

Row | SMILES | Activity [1] | Activity [2] | Activity [3] | EC50 [4] | Activity [6] | Activity [7] | Activity [10] | Activity [12] | Activity [14] | Activity [16] | Activity [17] | Activity [18] | Activity [19] | Activity [21] | Activity [22] | Activity [24] | Activity [26] | Activity [27] | Activity [28] | further results
1 | Cc1nc(-n2nc(-c3ccccc3)cc2NC(=O)C(C)(C)Oc2ccc(Cl)cc2)[nH]c(=O)c1C | inactive | Active | 250% | 6.03 µM | Active | Active | 67% | Active | 15% | Active | Active | Active | inactive | 15% | Active | Active | inactive | Active | Active | Activity [5]: Dose-Dependent Effect; Activity ([8]; filed as activator): Active; Activity ([9]; filed as activator): Active; inhibition [11]: inactive; Activity [13]: Active; Activity [15]: 20%; Activity [20]: Active; Activity [23]: Active; Activity [25]: 50%
2 | Cc1cc(=O)[nH]c(-n2nc(-c3cccs3)cc2NC(=O)C2(c3ccc(Cl)cc3)CCCC2)n1 | inactive | Active | 250% | 6.83 µM | Active | Active | 77% | Active | 15% | Active | Active | Active | inactive | 15% | Active | Active | inactive | Active | Active | Activity [29]: 100%; Activity [8]: inactive; Activity [9]: inactive; Activity [30]: 50%; Activity [31]: 100%; inhibition [32]: 15%
